Assay results published in PubChem BioAssay (NCI).
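Protocol summary: plate cells (96-well), add compound at 5 concentrations, incubate 48 h, interpolate endpoints linearly. Definition used: TGI = concentration required for complete inhibition of growth.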

Assays:
Assay in all cases: NCI-60 cell line screen, 48 h
EKVX NSCLC = system: EKVX NSCLC
HCT-15 colon = system: HCT-15 colon
HOP-92 NSCLC = system: HOP-92 NSCLC
IGROV1 ovarian = system: IGROV1 ovarian
MCF7 breast = system: MCF7 breast
NCI-H226 lung = system: NCI-H226 lung
NCI/ADR-RES ovarian = system: NCI/ADR-RES ovarian
OVCAR-5 ovarian = system: OVCAR-5 ovarian
SK-OV-3 ovarian = system: SK-OV-3 ovarian
UACC-257 melanoma = system: UACC-257 melanoma
UACC-62 melanoma = system: UACC-62 melanoma

SMILES	TGI (EKVX NSCLC) [µM]	TGI (HCT-15 colon) [µM]	TGI (HOP-92 NSCLC) [µM]	TGI (IGROV1 ovarian) [µM]	TGI (MCF7 breast) [µM]	TGI (NCI-H226 lung) [µM]	TGI (NCI/ADR-RES ovarian) [µM]	TGI (OVCAR-5 ovarian) [µM]	TGI (SK-OV-3 ovarian) [µM]	TGI (UACC-257 melanoma) [µM]	TGI (UACC-62 melanoma) [µM]
CN(O)C(=O)CCC(NC(=O)CCC(N)C(=O)O)C(=O)NCC(=O)O (centres undefined)	> 100	> 100	> 100	> 100	> 100	> 100	> 100	> 100	> 100	> 100	> 100
CCOC(=O)c1c(N)sc2c1CC(C)CC2 (centres undefined)	> 100	> 100	74.2	> 100	> 100	64	> 100	> 100	> 100	97.3	> 100
OC1NC2Nc3ccccc3NC2NC1O (centres undefined)	> 100	> 100	> 100	> 100	> 100	> 100	> 100	> 100	> 100	> 100	> 100
Nc1nc(Cl)cc(NCC2(CCO)CCC2)n1	> 100	> 100	> 100	> 100	> 100	> 100	> 100	> 100	> 100	> 100	> 10
COc1c2c(c3c(c1OC)c(=O)c1ccccc1n3C)OCO2	> 100	> 100	> 100	> 100	> 100	> 100	> 100	> 100	> 100	> 100	> 100
CCCCCCN(CCCCCC)CCC(=O)c1ccc2cc(Br)c3ccccc3c2c1	> 100	> 100	64.9	> 100	54.9	> 100	> 100	> 100	> 100	> 100	74.5
CC(C)(C)c1cc(/C=C(\C#N)C2=NCCO2)cc(C(C)(C)C)c1O	17.2	13.1	15.2	21.9	12.7	20.1	10.7	10	> 32.9	7.89	17.1
COc1ccc(C2SCC(=O)N2c2ccc(-n3c(-c4ccccc4)nc4ccccc4c3=O)cc2)cc1 (centres undefined)	> 100	> 100	> 100	> 100	> 100	> 100	> 100	> 100	> 100	> 100	> 100
CCOC(=O)CNC(=O)C(CCC(=O)N(C)O)NC(=O)CCC(N)C(=O)O (centres undefined)	> 100	> 100	> 100	> 100	> 100	> 100	> 100	> 100	> 100	> 100	> 100
